The text below walks through data of PubChem BioAssay AID1902 (Broad Institute, 2009).

Active and inactive are the calls of the source.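 The calls were made as follows: active = EC50 no more than a set limit of log units above the highest dose; inactive = the rest.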 Some results are limits rather than exact numbers.

By EC50 is commonly meant the concentration that produces a half-maximal response.

This experiment deals with S. pyogenes SKKanGAS, kanamycin survival, BacTiterGlo, 6 h. In words: SKKanGAS survival reduction under kanamycin, dose response, streptokinase promoter inhibitor project, SKKanGAS strain, luminescence, dose confirmation (AID 1902).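 Also: lower survival reflects blocked streptokinase promoter driving kanamycin resistance gene.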
Consider `Cc1cccc(C)c1OCC(O)CN1CCC(CN2C(=O)c3cccc4cccc(c34)C2=O)CC1` (stereo not drawn), for which the EC50 was 7.35 µM. Then `COc1ccc(C(=O)NC2CCCCCC2)cc1S(=O)(=O)N1CCOCC1`, with > 15 µM (inactive). Then `Fc1ccc2nc(Nc3nc4cc5c(cc4s3)OCO5)sc2c1`, with 2.63 µM.

For `CCCCCC/C(=N/O)c1ccccn1`, the EC50 was 15.4 µM. Then `CN1C(=O)/C(=C\c2ccccc2F)Sc2ccc(C(=O)NC3CCN(Cc4ccccc4)CC3)cc21`, with 6.22 µM. To `Clc1ccc(N2COC3c4cccc5cccc(c45)C32)cc1` (stereo not drawn) belongs 7.55 µM; to `CCOc1ccc(/C=N/Nc2cc(N3CCOCC3)nc(C)n2)c(O)c1`, 8.48 µM. Then `Cn1c(SCC(=O)NC2(C#N)CCCCC2)nnc1-c1cccnc1`, with > 15 µM (inactive). Turning to `Cc1ccc(N(C)S(=O)(=O)c2cccc(C(=O)Nc3nc4ccccc4[nH]3)c2)cc1`, the EC50 is 1 µM. Then `COc1ccccc1C(NC(C)=O)c1cc(Cl)c2cccnc2c1O` (stereo not drawn), with 2.91 µM; and `Cc1cccc(C(=O)NCC(=O)N2CCOCC2)c1`, with > 15 µM (inactive). Regarding `CCSc1n[nH]c2nc3c(c(=O)n12)C1(CCCC1)Cc1ccccc1-3`, the EC50 is 3.75 µM. Then `CCOC(=O)c1c(NC(=S)NCCc2ccccc2)sc2c1CC(C(C)C)OC2` (stereo not drawn), with 0.602 µM. Then `O=C(CCc1ccccc1)NNC(=S)NC(=O)c1ccc(Cl)cc1`, with 0.203 µM. To `O=C(CSc1nnc(NC(=O)c2ccccc2[N+](=O)[O-])s1)NC1CCCC1` belongs > 15 µM (inactive).

On to `CC(=O)OCC1=C(C(=O)O)N2C(=O)C(NC(=O)CCn3nc(C)c(Cl)c3C)C2SC1` (stereo not drawn), for which the concentration for a half-maximal effect (EC50) was 1.02 µM. To `COc1cccc(C(=O)Nc2nnc(-c3ccc(F)cc3)o2)c1` belongs 1.28 µM.

In the case of `Cc1nc2c(=O)n(C)c(=O)nc-2n(C)n1`, the EC50 is 2.77 µM. For `CC(=O)Oc1ccccc1C1=NN(C(=O)/C=C/c2ccccc2)C(c2ccccc2)C1` (stereo not drawn), the EC50 was 5.15 µM. Take `COc1ccccc1-c1nnc(NC(=O)c2ccc(S(=O)(=O)N(C)CC3CCCO3)cc2)o1` (stereo not drawn): the EC50 was 8.41 µM. Then `CCCSc1cc(N2CCCC2)nc(-c2ccccc2)n1`, with 6.8 µM. For `O=c1c2c(nc3c(-c4ccc(Cl)cc4)c[nH]n13)CCC2`, the half-maximal effective concentration (EC50) is 3.38 µM. Then `CC(C)c1ccc(C(=O)NC(=S)Nc2ccc3[nH]c(=O)[nH]c3c2)cc1`, with 6.26 µM; and `CO[C@@]1(NC(=O)Cc2cccs2)C(=O)N2C(C(=O)O)=C(COC(N)=O)CS[C@@H]21`, with 3.33 µM. To `CN(CC1CCCO1)S(=O)(=O)c1ccc(C(=O)Nc2ccc(F)cc2)cc1` (stereo not drawn) belongs > 15 µM (inactive); to `C/C(=N\NC(=O)c1cc(Br)ccc1O)c1cccc(NC(=O)c2ccccc2F)c1`, 2.87 µM; to `O=C(CN1c2ccccc2Sc2ccccc21)NNC(=S)Nc1ccc(Cl)cc1`, 2.67 µM. In the case of `CS(=O)(=O)c1ccc2nc(NC(=O)c3ccc(NS(=O)(=O)c4ccc(F)c(F)c4)cc3)sc2c1`, the EC50 was 0.622 µM. Then `CCCCCCCC(=O)NNC(=O)c1c(O)c2ccccc2n(CCC)c1=O`, with 1.1 µM; and `Cc1noc(C)c1CSCC(=O)Nc1nc2ccc(Oc3ccccc3)cc2s1`, with 4.85 µM; and `Cc1nn(-c2ccccc2)c(Cl)c1C1C(C#N)=C(N)OC2=C1C(=O)CCC2` (stereo not drawn), with 1.25 µM. Regarding `COc1ccc(S(=O)(=O)N[C@@H](C)C(=O)OCC(=O)Nc2cc3oc4ccccc4c3cc2OC)cc1`, the half-maximal effective concentration (EC50) is 1.42 µM. For the compound `Cc1ccccc1OCC(=O)NC(=S)Nc1ccc(Br)c(C)n1`, the EC50 is > 15 µM (inactive). Regarding `Cc1ccccc1-c1cc(-c2ccccc2O)n[nH]1`, the EC50 was 12.3 µM. Then `COC(=O)c1ccc2[nH]c3cccc(/C(=C/c4ccccc4)c4ccccc4)c3c2c1`, with 1.12 µM; and `Cc1cccc(C(=O)NNC(=O)c2c(O)c3ccccc3n(C)c2=O)c1`, with 6.96 µM; and `COC(=O)c1ccc(N2CCN(C)CC2)c(NC(=O)COc2ccc(C)cc2)c1`, with > 15 µM (inactive).

`COC(C(=O)Nc1ccnn1C1CCN(Cc2nccs2)CC1)c1ccccc1` (stereo not drawn): the EC50 is > 15 µM (inactive). Take `Cc1nc(NS(=O)(=O)c2ccc(Cl)s2)c2c3c(sc2n1)CCCC3`: the concentration for a half-maximal effect (EC50) is 3.98 µM.

Consider `COc1ccc(/C=C2/S/C(=N/N=C3\CC4CCC3(C)C4(C)C)NC2=O)cc1` (stereo not drawn), for which the EC50 was 10.7 µM. With `COc1ccc(-c2ncn(CCC#N)c2[N+](=O)[O-])cc1`, the EC50 was 2.72 µM. Then `COCc1cc(=O)[nH]c(Nc2nc3ccc(C)cc3o2)n1`, with 2.27 µM; and `Cc1ccc(NNC(=O)C2CCC2)cc1C`, with > 15 µM (inactive).

For the compound `CC(C)c1ccc(OCC(=O)NNC(=S)NC(=O)c2ccco2)c(Br)c1`, the EC50 is less than 0.06 µM. With `C=C(C)COc1ccc(-c2[nH]ncc2Oc2ccc(OC)cc2)c(O)c1`, the 50% effective concentration (EC50) is 4.05 µM. Then `Fc1ccc(-[n+]2nc(Nc3ccccc3)sc2-c2c3ccccc3cc3ccccc23)cc1`, with 5.95 µM. Then `COC(=O)c1c(NC(=O)COc2ccc(Cl)cc2)sc2c1CC(C)(C)NC2(C)C`, with 12.5 µM; and `Cc1cccc(Nc2nc(N)nc(CN3CCN(c4ccccc4F)CC3)n2)c1`, with 15.4 µM. To `CC1=NN(/C(=N\c2nnc(C)s2)Nc2ccc(C(C)(C)C)cc2)[C@H](c2ccc(C)cc2)S1` belongs 7.14 µM; to `Cc1ccc(O)c(C(=O)CC(=O)c2ccc(C(C)(C)C)cc2)c1`, 2.6 µM. As to `COc1ccc(Oc2nc(-c3ccccn3)nc3ccccc23)cc1`, the EC50 was 6.49 µM. Then `CCN1/C(=C\c2ccc3cc(C)ccc3[n+]2CC)Sc2cc(C)c(C)cc21`, with 4.23 µM; and `Cc1ccc2ccc(C(Nc3ccccn3)c3ccccc3)c(O)c2n1` (stereo not drawn), with 0.705 µM. To `CC(Oc1ccc(Cl)cc1)C(=O)NNC(=S)NC(=O)c1ccco1` (stereo not drawn) belongs 0.325 µM. Then `COc1ccc(NC(=S)Nc2nc(CC(=O)Nc3ccccc3OC)cs2)cc1`, with 8.89 µM; and `COc1ccc(N=Nc2ccc(O)c3ncccc23)cc1`, with less than 0.06 µM; and `O=C(c1ccc(Cl)cc1)c1cnc(Nc2ccccc2Cl)s1`, with 6.77 µM. With `Nc1ccc(N=Nc2ccccc2)c2ccccc12`, the EC50 is 6.71 µM. Consider `COc1ccc(-c2cc3nc4n(c(=O)c3s2)CCC4)cc1`, for which the EC50 is 0.734 µM.

Regarding `O=C(O)c1ccc(N2CCCCS2(=O)=O)cc1`, the EC50 was > 15 µM (inactive).

`Cc1cccc(NC2=Nc3ccccc3N3C2=Nc2c(c(C)nn2-c2ccccc2)C3c2ccc(O)c(O)c2)c1` (stereo not drawn): the EC50 is 4.54 µM. Take `O=[N+]([O-])c1cc(Cl)c(O)c2ncccc12`: the concentration for a half-maximal effect (EC50) was 0.782 µM. To `CCn1cnc2sc(C(=O)Oc3cccc(C)c3)c(C)c2c1=O` belongs 4.08 µM. Then `Cc1c(C(=O)Nc2nc3ccccc3[nH]2)oc2c(Cl)cccc12`, with 0.727 µM. Then `CN(c1ccccc1)S(=O)(=O)c1ccc(C(=O)Nc2nnc(-c3ccc(F)cc3)o2)cc1`, with 0.225 µM. As for `Cc1cc(C)c(C)c(S(=O)(=O)N2CCC(C(=O)NNC(=O)c3ccccc3O)CC2)c1C`, the EC50 was 11.8 µM. To `Cc1cc(C)c2nc(NNC(=O)c3cc(=O)c4ccccc4o3)sc2c1` belongs 0.165 µM; to `CC(C)=CCOc1ccc([C@@H]2COc3c(ccc4c3C=CC(C)(C)O4)C2)c(O)c1`, 1.83 µM.
